{"source": "patent US11649231B2", "about": "“Compound as mTOR inhibitor and use thereof” (MEDICINAL BIOCONVERGENCE RESEARCH CENTER, priority 2018, dated 2023)", "test_system": "mTORC1", "test": "mTORC1 activity inhibitory effect at 20 μM, phospho-p70 S6 Kinase Western blot in SW620 cells", "conditions": "leucine-free 1 h 30 min, then leucine 15 min, vs DMSO control", "protocol": "In order to evaluate the inhibitory effect of the compounds according to the present invention on the activity of mTORC1, an experiment was performed in the following manner."}
{"smiles": "Cn1cc(/C=C2\\SC(=S)N(Cc3ccco3)C2=O)cn1", "note": "[Example 1-2, (5Z)-3-(2-furylmethyl)-5-[(1-methylpyrazol-4-yl)methylene]-2-thioxo-thiazolidin-4-one]", "values": [{"measurement": "mTORC1 inhibitory effect (%)", "result": "74.4 ± 0.2", "unit": "%"}]}
{"smiles": "CN1C(=O)/C(=C/c2cnn(-c3ccccc3)c2)SC1=S", "note": "[Example 1-3, (5Z)-3-methyl-5-[(1-phenylpyrazol-4-yl)methylene]-2-thioxo-thiazolidin-4-one]", "values": [{"measurement": "mTORC1 inhibitory effect (%)", "result": "53.97 ± 1.49", "unit": "%"}]}
{"smiles": "CCN1C(=O)/C(=C/c2cnn(-c3ccccc3)c2)SC1=S", "note": "[Example 1-4, (5Z)-3-ethyl-5-[(1-phenylpyrazol-4-yl)methylene]-2-thioxo-thiazolidin-4-one]", "values": [{"measurement": "mTORC1 inhibitory effect (%)", "result": "68.36 ± 1.69", "unit": "%"}]}
{"smiles": "C=CCN1C(=O)/C(=C/c2cnn(-c3ccccc3)c2)SC1=S", "note": "[Example 1-5, (5Z)-3-allyl-5-[(1-phenylpyrazol-4-yl)methylene]-2-thioxo-thiazolidin-4-one]", "values": [{"measurement": "mTORC1 inhibitory effect (%)", "result": "45.82 ± 3.59", "unit": "%"}]}
{"smiles": "CN1C(=O)/C(=C/c2cnn(-c3ccccc3Cl)c2)SC1=S", "note": "[Example 1-10, (5Z)-5-[[1-(2-chlorophenyl)pyrazol-4-yl]methylene]-3-methyl-2-thioxo-thiazolidin-4-one]", "values": [{"measurement": "mTORC1 inhibitory effect (%)", "result": "50.52 ± 3.69", "unit": "%"}]}
{"smiles": "CCN1C(=O)/C(=C/c2cnn(-c3ccccc3Cl)c2)SC1=S", "note": "[Example 1-11, (5Z)-5-[[1-(2-chlorophenyl)pyrazol-4-yl]methylene]-3-ethyl-2-thioxo-thiazolidin-4-one]", "values": [{"measurement": "mTORC1 inhibitory effect (%)", "result": "67.22 ± 1.41", "unit": "%"}]}
{"smiles": "C=CCN1C(=O)/C(=C/c2cnn(-c3ccccc3Cl)c2)SC1=S", "note": "[Example 1-12, (5Z)-3-allyl-5-[[1-(2-chlorophenyl)pyrazol-4-yl]methylene]-2-thioxo-thiazolidin-4-one]", "values": [{"measurement": "mTORC1 inhibitory effect (%)", "result": "70.93 ± 2.39", "unit": "%"}]}
{"smiles": "CN1C(=O)/C(=C/c2cnn(-c3cccc(Cl)c3)c2)SC1=S", "note": "[Example 1-14, (5Z)-5-[[1-(3-chlorophenyl)pyrazol-4-yl]methylene]-3-methyl-2-thioxo-thiazolidin-4-one]", "values": [{"measurement": "mTORC1 inhibitory effect (%)", "result": "46.72 ± 14.22", "unit": "%"}]}
{"smiles": "CCN1C(=O)/C(=C/c2cnn(-c3cccc(Cl)c3)c2)SC1=S", "note": "[Example 1-15, (5Z)-5-[[1-(3-chlorophenyl)pyrazol-4-yl]methylene]-3-ethyl-2-thioxo-thiazolidin-4-one]", "values": [{"measurement": "mTORC1 inhibitory effect (%)", "result": "72.46 ± 1.79", "unit": "%"}]}
{"smiles": "C=CCN1C(=O)/C(=C/c2cnn(-c3cccc(Cl)c3)c2)SC1=S", "note": "[Example 1-16, (5Z)-3-allyl-5-[[1-(3-chlorophenyl)pyrazol-4-yl]methylene]-2-thioxo-thiazolidin-4-one]", "values": [{"measurement": "mTORC1 inhibitory effect (%)", "result": "3.74 ± 10.43", "unit": "%"}]}
{"smiles": "CN1C(=O)/C(=C/c2cnn(-c3ccc(Cl)cc3)c2)SC1=S", "note": "[Example 1-18, (5Z)-5-[[1-(4-chlorophenyl)pyrazol-4-yl]methylene]-3-methyl-2-thioxo-thiazolidin-4-one]", "values": [{"measurement": "mTORC1 inhibitory effect (%)", "result": "50.17 ± 12.77", "unit": "%"}]}
{"smiles": "CCN1C(=O)/C(=C/c2cnn(-c3ccc(Cl)cc3)c2)SC1=S", "note": "[Example 1-19, (5Z)-5-[[1-(4-chlorophenyl)pyrazol-4-yl]methylene]-3-ethyl-2-thioxo-thiazolidin-4-one]", "values": [{"measurement": "mTORC1 inhibitory effect (%)", "result": "54.17 ± 8.55", "unit": "%"}]}
{"smiles": "Cc1ccc(-n2cc(/C=C3\\SC(=S)NC3=O)cn2)cc1", "note": "[Example 1-20, (5Z)-5-[[1-(p-tolyl)pyrazol-4-yl]methylene]-2-thioxo-thiazolidin-4-one]", "values": [{"measurement": "mTORC1 inhibitory effect (%)", "result": "83.30 ± 1.76", "unit": "%"}]}
{"smiles": "Cc1ccc(-n2cc(/C=C3\\SC(=S)N(C)C3=O)cn2)cc1", "note": "[Example 1-21, (5Z)-3-methyl-5-[[1-(p-tolyl)pyrazol-4-yl]methylene]-2-thioxo-thiazolidin-4-one]", "values": [{"measurement": "mTORC1 inhibitory effect (%)", "result": "71.18 ± 5.04", "unit": "%"}]}
{"smiles": "CCN1C(=O)/C(=C/c2cnn(-c3ccc(C)cc3)c2)SC1=S", "note": "[Example 1-22, (5Z)-3-ethyl-5-[[1-(p-tolyl)pyrazol-4-yl]methylene]-2-thioxo-thiazolidin-4-one]", "values": [{"measurement": "mTORC1 inhibitory effect (%)", "result": "77.21 ± 0.84", "unit": "%"}]}
{"smiles": "C=CCN1C(=O)/C(=C/c2cnn(-c3ccc(C)cc3)c2)SC1=S", "note": "[Example 1-23, (5Z)-3-allyl-5-[[1-(p-tolyl)pyrazol-4-yl]methylene]-2-thioxo-thiazolidin-4-one]", "values": [{"measurement": "mTORC1 inhibitory effect (%)", "result": "15.74 ± 10.22", "unit": "%"}]}
{"smiles": "CCN1C(=O)/C(=C/c2cnn(-c3ccc(C(C)C)cc3)c2)SC1=S", "note": "[Example 1-25, (5Z)-3-ethyl-5-[[1-(4-isopropylphenyl)pyrazol-4-yl]methylene]-2-thioxo-thiazolidin-4-one]", "values": [{"measurement": "mTORC1 inhibitory effect (%)", "result": "36.86 ± 3.47", "unit": "%"}]}
{"smiles": "CCCCc1ccc(-n2cc(/C=C3\\SC(=S)NC3=O)cn2)cc1", "note": "[Example 1-26, (5Z)-5-[[1-(4-butylphenyl)pyrazol-4-yl]methylene]-2-thioxo-thiazolidin-4-one]", "values": [{"measurement": "mTORC1 inhibitory effect (%)", "result": "59.73 ± 3.55", "unit": "%"}]}
{"smiles": "CCCCc1ccc(-n2cc(/C=C3\\SC(=S)N(CC)C3=O)cn2)cc1", "note": "[Example 1-27, (5Z)-5-[[1-(4-butylphenyl)pyrazol-4-yl]methylene]-3-ethyl-2-thioxo-thiazolidin-4-one]", "values": [{"measurement": "mTORC1 inhibitory effect (%)", "result": "51.70 ± 7.12", "unit": "%"}]}
{"smiles": "Cc1ccc(-n2cc(/C=C3\\SC(=S)NC3=O)cn2)cc1C", "note": "[Example 1-28, (5Z)-5-[[1-(3,4-dimethylphenyl)pyrazol-4-yl]methylene]-2-thioxo-thiazolidin-4-one]", "values": [{"measurement": "mTORC1 inhibitory effect (%)", "result": "47.13 ± 3.15", "unit": "%"}]}
{"smiles": "CCN1C(=O)/C(=C/c2cnn(-c3ccc(C)c(C)c3)c2)SC1=S", "note": "[Example 1-29, (5Z)-5-[[1-(3,4-dimethylphenyl)pyrazol-4-yl]methylene]-3-ethyl-2-thioxo-thiazolidin-4-one]", "values": [{"measurement": "mTORC1 inhibitory effect (%)", "result": "4.02 ± 6.64", "unit": "%"}]}
{"smiles": "O=C1NC(=S)S/C1=C\\c1cnn(-c2ccc3ccccc3c2)c1", "note": "[Example 1-31, (5Z)-5-[[1-(2-naphthyl)pyrazol-4-yl]methylene]-2-thioxo-thiazolidin-4-one]", "values": [{"measurement": "mTORC1 inhibitory effect (%)", "result": "40.20 ± 1.02", "unit": "%"}]}
{"smiles": "CCN1C(=O)/C(=C/c2cnn(-c3ccc4ccccc4c3)c2)SC1=S", "note": "[Example 1-32, (5Z)-3-ethyl-5-[[1-(2-naphthyl)pyrazol-4-yl]methylene]-2-thioxo-thiazolidin-4-one]", "values": [{"measurement": "mTORC1 inhibitory effect (%)", "result": "75.04 ± 5.32", "unit": "%"}]}
{"smiles": "O=C1/C(=C/c2cnn(-c3ccccn3)c2)SC(=S)N1CCO", "note": "[Example 1-34, (5Z)-3-(2-hydroxyethyl)-5-[[1-(2-pyridyl)pyrazol-4-yl]methylene]-2-thioxo-thiazolidin-4-one]", "values": [{"measurement": "mTORC1 inhibitory effect (%)", "result": "82.94 ± 1.10", "unit": "%"}]}
{"smiles": "O=C1/C(=C/c2cnn(-c3cccnc3)c2)SC(=S)N1CCO", "note": "[Example 1-36, (5Z)-3-(2-hydroxyethyl)-5-[[1-(3-pyridyl)pyrazol-4-yl]methylene]-2-thioxo-thiazolidin-4-one]", "values": [{"measurement": "mTORC1 inhibitory effect (%)", "result": "80.88 ± 1.10", "unit": "%"}]}
{"smiles": "Cc1nn(-c2ccccc2)c(C)c1/C=C1\\SC(=S)NC1=O", "note": "[Example 1-38, (5Z)-5-[(3,5-dimethyl-1-phenyl-pyrazol-4-yl)methylene]-2-thioxo-thiazolidin-4-one]", "values": [{"measurement": "mTORC1 inhibitory effect (%)", "result": "75.78 ± 2.60", "unit": "%"}]}
{"smiles": "O=C1NC(=O)/C(=C/c2cnn(-c3ccccc3F)c2)S1", "note": "[Example 1-40, (5Z)-5-[[1-(2-fluorophenyl)pyrazol-4-yl]methylene]thiazolidine-2,4-dione]", "values": [{"measurement": "mTORC1 inhibitory effect (%)", "result": "41.03 ± 0.21", "unit": "%"}]}
{"smiles": "O=C1NC(=O)/C(=C/c2cnn(-c3cccc(F)c3)c2)S1", "note": "[Example 1-41, (5Z)-5-[[1-(3-fluorophenyl)pyrazol-4-yl]methylene]thiazolidine-2,4-dione]", "values": [{"measurement": "mTORC1 inhibitory effect (%)", "result": "49.37 ± 7.34", "unit": "%"}]}
{"smiles": "O=C1NC(=O)/C(=C/c2cnn(-c3ccc(F)cc3)c2)S1", "note": "[Example 1-42, (5Z)-5-[[1-(4-fluorophenyl)pyrazol-4-yl]methylene]thiazolidine-2,4-dione]", "values": [{"measurement": "mTORC1 inhibitory effect (%)", "result": "73.81 ± 2.77", "unit": "%"}]}
{"smiles": "O=C1NC(=O)/C(=C/c2cnn(-c3ccccc3Cl)c2)S1", "note": "[Example 1-43, (5Z)-5-[[1-(2-chlorophenyl)pyrazol-4-yl]methylene]thiazolidine-2,4-dione]", "values": [{"measurement": "mTORC1 inhibitory effect (%)", "result": "52.34 ± 3.97", "unit": "%"}]}
{"smiles": "O=C1NC(=O)/C(=C/c2cnn(-c3cccc(Cl)c3)c2)S1", "note": "[Example 1-44, (5Z)-5-[[1-(3-chlorophenyl)pyrazol-4-yl]methylene]thiazolidine-2,4-dione]", "values": [{"measurement": "mTORC1 inhibitory effect (%)", "result": "50.76 ± 5.28", "unit": "%"}]}
{"smiles": "O=C1NC(=O)/C(=C/c2cnn(-c3ccc(Cl)cc3)c2)S1", "note": "[Example 1-45, (5Z)-5-[[1-(4-chlorophenyl)pyrazol-4-yl]methylene]thiazolidine-2,4-dione]", "values": [{"measurement": "mTORC1 inhibitory effect (%)", "result": "64.18 ± 3.13", "unit": "%"}]}
{"smiles": "Cc1ccc(-n2cc(/C=C3\\SC(=O)NC3=O)cn2)cc1", "note": "[Example 1-46, (5Z)-5-[[1-(p-tolyl)pyrazol-4-yl]methylene]thiazolidine-2,4-dione]", "values": [{"measurement": "mTORC1 inhibitory effect (%)", "result": "74.39 ± 0.62", "unit": "%"}]}
{"smiles": "CC(C)c1ccc(-n2cc(/C=C3\\SC(=O)NC3=O)cn2)cc1", "note": "[Example 1-47, (5Z)-5-[[1-(4-isopropylphenyl)pyrazol-4-yl]methylene]thiazolidine-2,4-dione]", "values": [{"measurement": "mTORC1 inhibitory effect (%)", "result": "74.36 ± 1.23", "unit": "%"}]}
{"smiles": "CCCCc1ccc(-n2cc(/C=C3\\SC(=O)NC3=O)cn2)cc1", "note": "[Example 1-48, (5Z)-5-[[1-(4-butylphenyl)pyrazol-4-yl]methylene]thiazolidine-2,4-dione]", "values": [{"measurement": "mTORC1 inhibitory effect (%)", "result": "69.53 ± 2.04", "unit": "%"}]}
{"smiles": "Cc1ccc(-n2cc(/C=C3\\SC(=O)NC3=O)cn2)cc1C", "note": "[Example 1-49, (5Z)-5-[[1-(3,4-dimethylphenyl)pyrazol-4-yl]methylene]thiazolidine-2,4-dione]", "values": [{"measurement": "mTORC1 inhibitory effect (%)", "result": "68.36 ± 2.99", "unit": "%"}]}
{"smiles": "COc1ccccc1-n1cc(/C=C2\\SC(=O)NC2=O)cn1", "note": "[Example 1-50, (5Z)-5-[[1-(2-methoxyphenyl)pyrazol-4-yl]methylene]thiazolidine-2,4-dione]", "values": [{"measurement": "mTORC1 inhibitory effect (%)", "result": "38.93 ± 16.04", "unit": "%"}]}
{"smiles": "O=C1NC(=O)/C(=C/c2cnn(-c3ccc4ccccc4c3)c2)S1", "note": "[Example 1-51, (5Z)-5-[[1-(2-naphthyl)pyrazol-4-yl]methylene]thiazolidine-2,4-dione]", "values": [{"measurement": "mTORC1 inhibitory effect (%)", "result": "53.08 ± 1.81", "unit": "%"}]}
{"smiles": "Cc1nn(-c2ccccc2)cc1/C=C1\\SC(=O)NC1=O", "note": "[Example 1-53, (5Z)-5-[(3-methyl-1-phenyl-pyrazol-4-yl)methylene]thiazolidine-2,4-dione]", "values": [{"measurement": "mTORC1 inhibitory effect (%)", "result": "71.70 ± 1.70", "unit": "%"}]}
{"smiles": "Cc1nn(-c2ccccc2)c(C)c1/C=C1\\SC(=O)NC1=O", "note": "[Example 1-54, (5Z)-5-[(3,5-dimethyl-1-phenyl-pyrazol-4-yl]methylene]thiazolidine-2,4-dione]", "values": [{"measurement": "mTORC1 inhibitory effect (%)", "result": "71.17 ± 4.46", "unit": "%"}]}
